{"source": "patent US20250108032A1", "about": "“METHODS OF TREATING TYPE 1 DIABETES AND KIDNEY DISEASE” (LEXICON PHARMACEUTICALS, INC., priority 2023, published 2025)", "key": {"[1]": {"test_system": "patients with type 2 diabetes mellitus and CKD (eGFR 25 to 60 ml per minute per 1.73 m^2)", "format": "in vivo", "description": "The cardiorenal protective properties of sotagliflozin in patients with type 2 diabetes informed research that led to the present invention. […] The primary end point was changed during the trial to the composite of the total number of deaths from cardiovascular causes, hospitalizations for heart failure, and urgent visits for heart failure.\nOf 19.188 patients screened, 10,584 were enrolled, with 5,292 assigned to the sotagliflozin group and 5,292 assigned to the placebo group and followed for a median of 16 months. The rate of primary end-point events was 5.6 events per 100 patient-years in the sotagliflozin group and 7.5 events per 100 patient-years in the placebo group: hazard ratio, 0.74; 95% confidence interval (CI), 0.63 to 0.88; P<0.001. The rate of deaths from cardiovascular causes per 100 patient-years was 2.2 with sotagliflozin and 2.4 with placebo (hazard ratio, 0.90; 95% CI, 0.73 to 1.12; P=0.35). For the original coprimary end point of the first occurrence of death from cardiovascular causes, nonfatal myocardial infarction, or nonfatal stroke, the hazard ratio was 0.84 (95% CI, 0.72 to 0.99); for the original coprimary end point of the first occurrence of death from cardiovascular causes or hospitalization for heart failure, the hazard ratio was 0.77 (95% CI, 0.66 to 0.91). Diarrhea, genital mycotic infections and volume depletion were more common with sotagliflozin than with placebo.\nTable 1 provides the number and type of cardiorenal events observed during the trial, wherein each of the sotagliflozin and placebo groups contained 5292 patients."}, "[2]": {"test_system": "patients with type 1 diabetes receiving insulin therapy (overall and CKD cohorts)", "experiment": "inTandem3 phase 3, double-blind trial, sotagliflozin 400 mg per day vs placebo for 24 weeks", "format": "in vivo, human", "conditions": "for placebo-adjusted systolic blood pressure, least-squared mean change: after 16 weeks; for DKA, HR (95% CI) / Severe hypoglycemia, HR (95% CI): 400 mg/day vs placebo", "procedure": "The in Tandem3 study was a phase 3, double-blind trial conducted at 133 centers worldwide. In the study, 1402 patients with type 1 diabetes who were receiving treatment with insulin therapy (pump or injections) were randomly assigned to receive sotagliflozin (400 mg per day) or placebo for 24 weeks. The primary end point was a glycated hemoglobin level lower than 7.0% at week 24 with no episodes of severe hypoglycemia or diabetic ketoacidosis after randomization. Secondary end points included the change from baseline in glycated hemoglobin level, weight, systolic blood pressure, and mean daily bolus dose of insulin. Specific details of the study were reported in Garg, S. K., et al., “Effects of Sotagliflozin Added to Insulin in Patients with Type 1 Diabetes” N. Engl. J. Med. 2017:377:2337-48.\nThe rate of severe hypoglycemia was similar in the sotagliflozin group and the placebo group (3.0% [21 patients] and 2.4% [17 patients], respectively). […] The rate of DKA was higher in the sotagliflozin group than in the placebo group (3.0% [21 patients] and 0.6%, respectively). Id. at 2337.\nFor this invention, data from CKD patients were compared to those of the overall cohort. As shown below, 16% of patients had CKD at baseline: […]"}, "T1D patients": {"test_system": "T1D patients", "conditions": "cited from earlier work"}, "[3]": {"conditions": "T2D and CKD, 5292 patients per group"}, "[4]": {"conditions": "400 mg per day, overall population"}, "[5]": {"conditions": "400 mg/day, CKD Cohort N = 115, 24 weeks"}}, "data": [{"smiles": "CCOc1ccc(Cc2cc([C@@H]3O[C@H](SC)[C@@H](O)[C@H](O)[C@H]3O)ccc2Cl)cc1", "note": "[sotagliflozin, (2S,3R,4R,5S,6R)-2-(4-chloro-3-(4-ethoxybenzyl)phenyl)-6-(methylthio)tetrahydro-2H-pyran-3,4,5-triol]", "values": [{"measurement": "50% decline in eGFR (sustained or last value), n (%)", "setting": "[1]; [3]", "value": "75 (1.4) n (%)"}, {"measurement": "Chronic dialysis or transplant, n (%)", "setting": "[1]; [3]", "value": "15 (0.3) n (%)"}, {"measurement": "End-stage kidney disease, n (%)", "setting": "[1]; [3]", "value": "50 (0.9) n (%)"}, {"measurement": "Renal death, n (%)", "setting": "[1]; [3]", "value": "8 (0.2) n (%)"}, {"measurement": "eGFR <15 mL/min/m^2 (sustained or last value), n (%)", "setting": "[1]; [3]", "value": "41 (0.8) n (%)"}, {"measurement": "First event in composite, n (%)", "setting": "[1]; cardiorenal composite, T2D and CKD, 5292 patients per group, median follow-up 16 months", "value": "239 (4.5) n (%)"}, {"measurement": "risk of cardiorenal endpoints", "setting": "[1]; compared to placebo, FIG. 1", "value": "significantly reduced"}, {"measurement": "rate of primary end-point events", "setting": "[1]; composite of deaths from cardiovascular causes, hospitalizations for heart failure, urgent visits for heart failure, median 16 months", "value": "5.6 events per 100 patient-years"}, {"measurement": "Diarrhea, genital mycotic infections and volume depletion", "setting": "[1]; human, in vivo", "value": "more common"}, {"measurement": "rate of deaths from cardiovascular causes", "setting": "[1]; median follow-up 16 months", "value": 2.2, "unit": "per 100 patient-years"}, {"measurement": "50% decline in eGFR (sustained or last value), HR (95% CI)", "setting": "[1]; vs placebo", "value": "0.60 (0.45, 0.81)"}, {"measurement": "End-stage kidney disease, HR (95% CI)", "setting": "[1]; vs placebo", "value": "0.63 (0.45, 0.91)"}, {"measurement": "Renal death, HR (95% CI)", "setting": "[1]; vs placebo", "value": "1.59 (0.52, 4.86)"}, {"measurement": "eGFR <15 mL/min/m^2 (sustained or last value), HR (95% CI)", "setting": "[1]; vs placebo", "value": "0.60 (0.41, 0.88)"}, {"measurement": "primary end point hazard ratio", "setting": "[1]; vs placebo, 95% CI 0.63 to 0.88", "value": 0.74}, {"measurement": "hazard ratio, original coprimary end point: first occurrence of death from cardiovascular causes or hospitalization for heart failure", "setting": "[1]; vs placebo, 95% CI 0.66 to 0.91", "value": 0.77}, {"measurement": "hazard ratio, original coprimary end point: first occurrence of death from cardiovascular causes, nonfatal myocardial infarction, or nonfatal stroke", "setting": "[1]; vs placebo, 95% CI 0.72 to 0.99", "value": 0.84}, {"measurement": "First event in composite, HR (95% CI)", "setting": "[1]; vs placebo, T2D and CKD", "value": "0.77 (0.65, 0.91)"}, {"measurement": "placebo-adjusted systolic blood pressure, least-squared mean change", "setting": "[2]; 400 mg per day, CKD group, SE=1.81", "value": "−7.1", "unit": "mm Hg"}, {"measurement": "placebo-adjusted change in HbA1C, least-squared mean", "setting": "[2]; 400 mg per day, CKD group, after 24 weeks, SE=0.120", "value": "−0.46", "unit": "%"}, {"measurement": "placebo-adjusted change in body weight, least-squared mean", "setting": "[2]; 400 mg per day, CKD group, after 24 weeks, SE=0.464", "value": -2.82, "unit": "kg"}, {"measurement": "number of patients achieving the primary end point", "setting": "[2]; 400 mg per day, of 699 patients", "value": 200, "unit": "patients"}, {"measurement": "mean daily bolus dose of insulin, least-squares mean change from baseline, difference vs placebo", "setting": "[2]; [4]", "value": "−2.8", "unit": "units per day"}, {"measurement": "proportion of patients achieving the primary end point (glycated hemoglobin lower than 7.0% at week 24 with no severe hypoglycemia or DKA)", "setting": "[2]; [4]", "value": 28.6, "unit": "%"}, {"measurement": "systolic blood pressure, least-squares mean change from baseline, difference vs placebo", "setting": "[2]; [4]", "value": "−3.5", "unit": "mm Hg"}, {"measurement": "glycated hemoglobin, least-squares mean change from baseline, difference vs placebo", "setting": "[2]; 400 mg per day, overall population, 24 weeks", "value": "−0.46", "unit": "percentage points"}, {"measurement": "placebo-adjusted systolic blood pressure, least-squared mean change", "setting": "[2]; 400 mg per day, total, overall population, SE=0.57", "value": "−3.8", "unit": "mm Hg"}, {"measurement": "placebo-adjusted change in body weight, least-squares mean", "setting": "[2]; 400 mg per day, total, overall population, after 24 weeks", "value": -2.98, "unit": "kg"}, {"measurement": "placebo-adjusted change in HbA1C, least-squared mean", "setting": "[2]; 400 mg per day, total, overall population, after 24 weeks, SE=0.042", "value": "−0.46", "unit": "%"}, {"measurement": "DKA, HR (95% CI)", "setting": "[2]; CKD Cohort, 24 weeks", "value": 3.5}, {"measurement": "Severe hypoglycemia, HR (95% CI)", "setting": "[2]; CKD Cohort, 24 weeks", "value": 1.7}, {"measurement": "DKA, HR (95% CI)", "setting": "[2]; Overall Cohort, 24 weeks", "value": 5.5}, {"measurement": "Severe hypoglycemia, HR (95% CI)", "setting": "[2]; Overall Cohort, 24 weeks", "value": 1.3}, {"measurement": "DKA, %", "setting": "[2]; [5]", "value": "(2.6) %"}, {"measurement": "Severe hypoglycemia, %", "setting": "[2]; [5]", "value": "(7.0) %"}, {"measurement": "rate of documented hypoglycemia with a blood glucose level of 55 mg per deciliter (3.1 mmol per liter) or below", "setting": "[2]; sotagliflozin group vs placebo group", "value": "significantly lower"}, {"measurement": "albuminuria", "setting": "T1D patients", "value": "reduction in albuminuria"}, {"measurement": "blood pressure", "setting": "T1D patients", "value": "lowered blood pressure"}, {"measurement": "eGFR", "setting": "T1D patients", "value": "acute change in eGFR"}, {"measurement": "hemoconcentration", "setting": "T1D patients", "value": "induced mild hemoconcentration"}, {"measurement": "risk of diabetic ketoacidosis (DKA)", "setting": "T1D patients", "value": "increased"}]}]}
